Patent US11261213B2, “Crystalline bis- and tris-hydrochloride salt of elamipretide” (Stealth BioTherapeutics Inc., priority 2018, dated 2022)
In brackets after ≈: the same amount, converted by molar mass. Counter-ions that a name gives are not always drawn. Like-named read-outs stand apart in the source and are kept apart here. Residues, ends and D or L forms follow the SMILES beside them.

How the values were obtained:
[1] = Gravimetric vapour sorption (GVS); assay type: physicochemical
Method: Approximately 15 mg of sample was placed into a mesh vapour sorption balance pan and loaded into an IGASorp Moisture Sorption Analyser balance by Hiden Analytical. The sample was subjected to a ramping profile from 40-90% relative humidity (RH) at 10% increments, maintaining the sample at each step until a stable weight had been achieved (98% step completion). After completion of the sorption cycle, the sample was dried using the same procedure to 0% RH, then subjected to a second ramping profile from 0-90% relative humidity. After completion of the second sorption cycle, the sample was dried using the same procedure to 0% RH, and finally taken back to the starting point of 40% RH. The weight change during the sorption/desorption cycles were plotted, allowing for the hygroscopic nature of the sample to be determined.

[2] = physchem
[3] = Effect of drying and humidity exposure on crystalline solid (XRPD); assay type: physicochemical
Method: Powder x-ray diffraction (XRPD) experiments were performed on a Rigaku MiniFlex 600 equipped with a Cu Kα radiation source (wavelength of x-rays 1.54 Å), and a scintillation detector. Samples were prepared on Si zero-return wafers. Scans were performed from 2θ 4 to 30 degrees over a step size of 0.05 over thirty minutes with cathode ray tube voltage and current 40 kV and 15 mA, respectively.
The crystalline solid was dried at 50 C under vacuum overnight, and analyzed by XRPD. […] Furthermore, the dry solid was exposed to about 95% relative humidity at room temperature for 24 hours followed by XRPD analysis. […] It should be noted that 3-HCl salt of MTP-131 deliquesces at more than 70% relative humidity.

[4] = physchem; conditions: water
Method: The solubility of the crystalline solid was assessed qualitatively in water.

Cc1cc(O)cc(C)c1C[C@H](NC(=O)[C@H](N)CCCNC(=N)N)C(=O)N[C@@H](CCCCN)C(=O)N[C@@H](Cc1ccccc1)C(N)=O [MTP-131 HCl] (HELM PEPTIDE1{[dR].[Cc1cc(O)cc(C)c1C[C@H](N[*:1])C(=O)[*:2]].K.F.[am]}$$$$V2.0)
Hygroscopicity by GVS [1]: highly hygroscopic | GVS mass increase ([1]; between 40-90% RH): ca. 30% | State of solid after GVS ([1]; ramping up to 90% RH): deliquesced and adhered to the basket | solubility [2]: ≤ 10000 µg/mL | solubility ([2]; 2-Propanol, Solubility at 50° C.): < 10000 µg/mL | solubility ([2]; 2-Propanol:Water (95:5 v/v), Solubility at 50° C., 2-Propanol:Water (95:5 v/v)): < 10000 µg/mL | solubility ([2]; 2-Propanol:Water (99:1 v/v), Solubility at 50° C., 2-Propanol:Water (99:1 v/v)): < 10000 µg/mL | solubility ([2]; Acetone, Solubility at 50° C.): < 10000 µg/mL | solubility ([2]; Acetone:Water (95:5 v/v), Solubility at 50° C., Acetone:Water (95:5 v/v)): < 10000 µg/mL | solubility ([2]; Acetonitrile:DMSO (85:15 v/v), Solubility at 50° C., Acetonitrile:DMSO (85:15 v/v)): < 10000 µg/mL | solubility ([2]; Acetonitrile:Water (95:5 v/v), Solubility at 50° C., Acetonitrile:Water (95:5 v/v)): < 10000 µg/mL | solubility ([2]; Acetonitrile:Water (99:1 v/v), Solubility at 50° C., Acetonitrile:Water (99:1 v/v)): < 10000 µg/mL | solubility ([2]; DCM:DMSO (85:15 v/v), Solubility at 50° C., DCM:DMSO (85:15 v/v)): < 10000 µg/mL | solubility ([2]; Dichloromethane, Solubility, carried out at 35° C. (footnote)): < 10000 µg/mL | solubility ([2]; Ethanol, Solubility at 50° C.): 10000 µg/mL | solubility ([2]; Ethanol:DMSO (95:5% v/v), Solubility at 50° C., Ethanol:DMSO (95:5% v/v)): ~33000 µg/mL | solubility ([2]; Ethanol:Water (95:5 v/v), Solubility at 50° C., Ethanol:Water (95:5 v/v)): ~67000 µg/mL | solubility ([2]; Methanol, Solubility at 50° C.): > 200000 µg/mL | solubility ([2]; Methanol:Water (95:5 v/v), Solubility at 50° C., Methanol:Water (95:5 v/v)): > 200000 µg/mL | solubility ([2]; THF:Water (95:5% v/v), Solubility at 50° C., THF:Water (95:5% v/v), (separated)): < 10000 µg/mL | solubility ([2]; THF:Water (99:1 v/v), Solubility at 50° C., THF:Water (99:1 v/v)): < 10000 µg/mL | solubility ([2]; Trifluoroethanol, Solubility at 50° C.): < 10000 µg/mL | Relative humidity at which the salt deliquesces [3]: more than 70 % relative humidity

Cc1cc(O)cc(C)c1C[C@H](NC(=O)[C@H](N)CCCNC(=N)N)C(=O)N[C@@H](CCCCN)C(=O)N[C@@H](Cc1ccccc1)C(N)=O [crystalline solid] (HELM PEPTIDE1{[dR].[Cc1cc(O)cc(C)c1C[C@H](N[*:1])C(=O)[*:2]].K.F.[am]}$$$$V2.0)
Physical integrity after humidity exposure ([3]; about 95% relative humidity, room temperature, 24 hours): physically kept its integrity | XRPD pattern after drying (stability upon drying) ([3]; dried at 50 C under vacuum overnight): No changes were observed | XRPD after humidity exposure ([3]; dry solid, about 95% relative humidity, room temperature, 24 hours): remained unchanged | solubility [4]: ~60000 µg/mL (≈ 93.8 mM)
